{"source": "paper PMC9291711", "about": "“PLGA-modified Syloid®-based microparticles for the ocular delivery of terconazole: in-vitro and in-vivo investigations” (Drug Delivery, 2022)", "origin": "cited, not measured here", "details": "stated without reference", "data": [{"smiles": "CC(C)N1CCN(c2ccc(OCC3COC(Cn4cncn4)(c4ccc(Cl)cc4Cl)O3)cc2)CC1", "note": "(centres unmarked) [Terconazole, terconazole]", "values": [{"measurement": "Pka", "result": 8}, {"measurement": "log P", "result": 5.37}]}]}
